From patent US5395841A, “4-benzylpiperidines for treating phychosis” (Ferrer Internacional, S.A., priority 1992, dated 1995)
Counter-ions that a name gives are not always drawn.

Molecular target: sigma-receptor (Cavia porcellus, UniProt Q60492)
Assay: Sigma-receptor binding ([3H]3-PPP displacement, membranes of guinea pig total brain)
Conditions: 2 nM (+)[3H]3-PPP, guinea pig total brain membrane, 90 min at 25° C., pH 8.5 TRIS.HCl, eleven concentrations; read-out: IC50 (inhibitory concentration 50%)

Sequence of sigma-receptor (Q60492 whole entry): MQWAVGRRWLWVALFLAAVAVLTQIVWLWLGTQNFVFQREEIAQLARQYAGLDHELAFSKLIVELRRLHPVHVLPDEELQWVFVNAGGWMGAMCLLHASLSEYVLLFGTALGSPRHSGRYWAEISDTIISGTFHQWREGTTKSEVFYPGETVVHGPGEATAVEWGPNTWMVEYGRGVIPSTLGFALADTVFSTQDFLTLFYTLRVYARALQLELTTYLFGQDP

SMILES | IC50 [nM]
O=C1CC2(CCCC2)CC(=O)N1CCCCN1CCC(Cc2ccc(F)cc2)CC1 [Example 10, 8-[4-[4-(p-Fluorobenzyl)-1-piperidinyl]butyl]-8-azaspiro[4,5] decane-7,9-dione hydrochloride] | 1.89
OC(CCCN1CCC(Cc2ccc(F)cc2)CC1)c1ccc(F)cc1 (centres unmarked) [Example 7, 4-(p-Fluorobenzyl)-1-(4-fluorophenyl-4-hydroxy)butylpiperidine hydrochloride] | 8.8
O=C(CCCN1CCC(Cc2ccc(F)cc2)CC1)c1ccc(F)cc1 [Example 5, 4-p-Fluorobenzyl-1-(4-p-fluorophenyl-4-oxo)butylpiperidine hydrochloride] | 2.4
Fc1ccc(CC2CCN(CCCOc3ccc(F)cc3)CC2)cc1 [Example 8, 4-(p-Fluorobenzyl)-1-[3-(p-fluorophenoxy)propyl]piperidine dibenzoate] | 4.5
CCCN1CCC(Cc2ccc(F)cc2)CC1 [Example 1, 4-p-Fluorobenzyl-1-propylpiperidine hydrochloride] | 2.95
OC(CCCN1CCC(Cc2ccccc2)CC1)c1ccc(F)cc1 (centres unmarked) [Example 6, 4-Benzyl-1-(4-hydroxi-4-p-fluorophenyl)butylpiperidine hydrochloride] | 1.49
Fc1ccc(CC2CCN(CCCC(c3ccc(F)cc3)c3ccc(F)cc3)CC2)cc1 [Example 9, 4-(p-Fluorobenzyl)-1-[4,4-bis(p-fluorophenyl)butyl]piperidine tribenzoate] | 72
Fc1ccc(CC2CCN(CCCOc3ccc(F)cc3)CC2)cc1 [Example 11, 4-(p-Fluorobenzyl)-1-[3-(p-fluorophenoxy)propyl]piperidine hydrochloride] | 4.2
